The target in one assay is T1, human Y1 -receptor (Homo sapiens, UniProt P25929).
T1 construct: endoge- nously expressing Y1 and Y2 receptors; endogenous in cells; host or cells: SK-N-MC (neuroblastoma) cells
T1 sequence (P25929 1-384): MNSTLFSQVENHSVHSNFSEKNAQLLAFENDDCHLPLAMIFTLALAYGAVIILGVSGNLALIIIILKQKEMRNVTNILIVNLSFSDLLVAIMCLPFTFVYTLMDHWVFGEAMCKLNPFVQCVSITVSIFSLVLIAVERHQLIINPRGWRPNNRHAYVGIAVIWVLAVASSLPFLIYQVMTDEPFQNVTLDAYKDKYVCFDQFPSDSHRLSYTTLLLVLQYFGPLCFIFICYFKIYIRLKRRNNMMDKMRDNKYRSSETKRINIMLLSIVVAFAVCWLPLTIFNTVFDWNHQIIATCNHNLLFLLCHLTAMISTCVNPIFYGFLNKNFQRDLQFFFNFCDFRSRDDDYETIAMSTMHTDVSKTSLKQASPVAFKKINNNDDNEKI
Description: Receptor binding to SK-N-MC cells ([125I]-Bolton-Hunter-NPY displacement). The conditions noted are these: Table 1. The procedure: Incubation is ended by centrifuging (10 minutes at 3000×gand […].). After washing once with PBS, the radioactivity of the pellet is measured in a gamma counter. […] The proportion of non-specific binding is defined as that radioactivity which is bound in the presence of 1 μM NPY. The IC50 values of the unlabelled test substances are determined graphically.

The next assay has as its system NPY induced food intake. Description: Food intake in satiated rats after NPY application to the PVN. In kind it is in vivo, rat. The procedure:
For these determinations food intake was measured in normal satiated rats after application of NPY to the paraventricular nucleus (PVN) in the presence or absence of the test compound. […] The rats were individually housed in stainless steel cages where water and food were available ad libitum.
Rats under Pentobarbital anaesthesia were stereotactically implanted with a stainless steel double guide cannula targeted bilaterally at the PVNs. Stereotactic coordinates were: -1.8mm caudal, 0.5mm lateral to bregma and 7.0 mm below the skull surface. Injection cannulae extended the guide cannulae by 1 mm. Animals were allowed to recover from surgery for at least 10 days before being used in the experiments. Rats were handled and mock-injected during the […] recovery period to habituate them to the injection procedure.
Animals treated with both test compounds and NPY were treated first with the test compound. Then, 15 min. after PVN infusion of the test compound or vehicle (control) 1 μg of NPY was administered by PVN infusion.
Food intake was measured by placing preweighed pellets into the cages at the time of NPY injection. Pellets were removed from the cage at 2 h post NPY injection. The food intake of animals treated with test compound was calculated as a percentage of the food intake of control animals, i.e., animals treated with vehicle.

The subject of assay [1] is NPY. The assay can be described thus: NPY-antagonism in vitro, isolated perfused rat kidney. The note with it: NPY 1 μM bolus. The procedure:
The abdomen is opened along the centre of the body and the left kidney is removed after the insertion of catheters in the renal artery, renal vein and ureter. The isolated kidney is immediately perfused with a modified Krebs-Ringer solution having the following composition (4 ml/minute):
The perfusion pressure is measured continuously using a pressure gauge. After a 60 minute stabilisation period the perfusion rate is adjusted so as to obtain a perfusion pressure of approximately 100 mm Hg. After a further 30 minutes the experiment is started and NPY (1μM) is administered as a bolus (0.1 ml) at 15 minute intervals until the pressure increase observed reaches a constant value. The compounds to be tested are given in the form of a continuous infusion over a period of 5 minutes and then NPY is injected. After a 30 minute wash-out period the next highest concentration of test substance is investigated. 3 to 5 different concentrations of the particular compound are tested on each occasion. Concentration/activity curves can be obtained by plotting the percentage inhibition of the NPY activity against the logarithm of the concentration (mol/1) of the compound.

Assay [2] deals with NPY. Description: In vivo NPY-antagonism, NPY-induced blood pressure effects in pithed rats. The note with it: Rattus norvegicus, iv, 1 min, NPY 10 μg/kg i.v., diastolic blood pressure, read-out: pIC50 (in vivo NPY-antagonism) (converted). The procedure: After intubation of the trachea the animals are pithed by introducing a blunt needle through the eye into the spinal bone marrow channel. The animals are ventilated with oxygen-rich ambient air using a respiratory pump (20 strokes/minute). A cannula is inserted in the left carotid artery and the arterial blood pressure is measured using a pressure gauge (Braun Melsungen Combitrans) connected to a recording device. For injection purposes a catheter is placed in the left jugular vein through which heparin is administered (200 IU/kg, i.v.). After the blood pressure has been stabilised, the animals are given 2 bolus injections of NPY (10 μg/kg, i.v.) at intervals of 15 minutes. The average increase in diastolic blood pressure is taken as the reference value (=100%). The test substances are injected in increasing doses (4 to 6 doses) at intervals of 15 minutes. One minute after administration of the test substance, NPY is administered.
The antagonistic effect of the test substances is determined by plotting the percentage inhibition of the NPY-induced blood pressure effects against the logarithm of the concentration of active substance.

Structures can show the parent of a compound that is named as a salt.

In general, IC50 refers to the midpoint of a concentration-inhibition curve. A higher IC50 goes with weaker potency. The compound `COC(=O)COc1ccc(C(C(=O)N[C@H](CCCNC(=N)N)C(=O)NCc2ccc(CNC(N)=O)cc2)c2ccc(O)cc2)cc1` (stereo partly drawn) [L] gave an IC50 at human Y1 -receptor of 2.2 nM. On to “Neuropeptide Y [NPY, reference compound]”, for which the “two hour food intake induced by NPY” value in the assay on NPY induced food intake (NPY 1 μg, versus 0.5 g with vehicle) amounted to 3.5 g. Consider `N=C(N)NCCC[C@@H](NC(=O)Cc1cc(Cl)c(N)c(Cl)c1)C(=O)NCc1ccc(CNC(N)=O)cc1` [R, (R)-N-[[4-(Aminocarbonylaminomethyl)phenyl]methyl]-N^2-[(4-amino-3,5-dichlorphenyl)acetyl]-argininamide-tri-fluoracetate], for which the concentration for half-maximal inhibition (IC50) on human Y1 -receptor is 4.5 nM. Same read-out and setting: the same measure for `CN(Cc1ccc(CNC(N)=O)cc1)C(=O)[C@@H](CCCNC(=N)N)NC(=O)C(c1ccccc1)c1ccccc1` [P, (R)-N-[[4-(Aminocarbonylaminomethyl)phenyl]methyl]-N^2-(diphenylacetyl)-N-methyl-argininamide-acetate]: 3.5 nM; for `N=C(N)NCCC[C@@H](NC(=O)CC(c1ccccc1)c1ccccc1)C(=O)NCc1ccc(CNC(N)=O)cc1` [O, (R)-N-[[4-(Aminocarbonylaminomethyl)phenyl]methyl]-N^2-(3,3-diphenyl-1-oxopropyl)-argininamide]: 3.45 nM. On the same count and under the same terms, the same measure for `NC(=O)Cc1ccc(CNC(=O)[C@@H](CCCNc2ncc[nH]2)NC(=O)C(c2ccccc2)c2ccccc2)cc1` [S, (R)-N-[[4-(Aminocarbonylmethyl)phenyl]methyl]-N^2-(diphenylacetyl)-N^5-(1H-imidazol-2-yl)-ornithinamide-hydroiodide]: 28.3 nM. For `N=C(N)NCCC[C@@H](NC(=O)C(c1ccc(O)cc1)c1ccc(O)cc1)C(=O)NCc1ccc(CNC(N)=O)cc1` [A], in the assay with NPY induced food intake (30 μg, PVN, 2 h, 1 μg NPY), the “% Inhibition of food intake” value is recorded as 32% and the “Food intake following NPY application” value is 2.40 g/animal.

As for `CCOC(=O)NCc1ccc(CNC(=O)[C@@H](CCCNC(=N)N)NC(=O)C(c2ccccc2)c2ccccc2)cc1` [Q, (R)-N^2-(Diphenylacetyl)-N-[[4-(ethoxycarbonylamino-methyl)phenyl]methyl]-argininamide-trifluoracetate], in the assay with NPY [1], the “pIC50 (NPY-antagonism in vitro)” value is 7.77. The ED50 in the assay on NPY [2] is 0.162 µmol/kg. Further, at human Y1 -receptor, the IC50 was found to be 4.25 nM. At human Y1 -receptor, `COc1ccc2cc(C(=O)N[C@H](CCCNC(=N)N)C(=O)NCc3ccc(CNC(N)=O)cc3)ccc2c1` [N, (R)-N-[[4-(Aminocarbonylaminomethyl)phenyl]methyl]-N^2-(6-methoxy-2-naphthoyl)-argininamide-acetate] had an IC50 of 3.4 nM. On to `N=C(N)NCCC[C@@H](NC(=O)Nc1ccc(Cl)c(Cl)c1)C(=O)NCc1ccc(CNC(N)=O)cc1` [K], for which, on human Y1 -receptor, the half-maximal inhibitory concentration (IC50) was determined as 1.8 nM. For `CCOC(=O)NC(=O)NCc1ccc(CNC(=O)[C@@H](CCCNC(=N)N)NC(=O)C(c2ccccc2)c2ccccc2)cc1` [H, (R)-N^2-(Diphenylacetyl)-N-[[4-(ethoxycarbonylamino-carbonylaminomethyl)phenyl]methyl]-argininamide-trifluor-acetate], the IC50 on human Y1 -receptor came to 1.1 nM.

For `N=C(N)NCCC[C@@H](NC(=O)C(c1ccccc1)c1ccccc1)C(=O)OCc1ccc(CNC(N)=O)cc1` [M, (R)-N^2-(Diphenylacetyl)-arginine-[4-(aminocarbonylamino-methyl)phenyl]methylester-trifluoracetate], the IC50 on human Y1 -receptor is 3 nM. `CN(CCCC(NC(=O)C(c1ccccc1)c1ccccc1)C(=O)NCc1ccc(O)cc1)C(=N)N` (racemic) [Compound E, (R,S)-N^5-(Aminoiminomethyl)-N^2-(diphenylacetyl)-N-[(4-hydroxyphenyl)methyl]-N^5-methyl-ornithinamide-hydrochloride]: the “pIC50 (NPY-antagonism in vitro)” value with NPY [1] amounted to 8.41. The ED50 in the assay with NPY [2] was 0.0135 µmol/kg.

On human Y1 -receptor, `CN(C)C(=O)NCc1ccc(CNC(=O)[C@@H](CCCNC(=N)N)NC(=O)C(c2ccccc2)c2ccccc2)cc1` [I, (R)-N-[[4-(Dimethylaminocarbonylaminomethyl)phenyl]methyl]-N^2-(diphenylacetyl)-argininamide-bis-(trifluor-acetate)] came in with an IC50 of 1.5 nM.

The values above are taken from US6114390A, “Amino acid derivatives, pharmaceutical compositions containing these compounds and processes for preparing them” (Karl Thomae GmbH, priority 1997, dated 2000).
